The source made the active and inactive calls. The rule behind the calls is not given here.
Experiments:
[1] = tested on: Mus musculus; assay: Antiphotoaging activity in DBA-2 mouse assessed as reduction of UVB-induced PCNA-positive cell in ear tissue at 92.4 to 462.2 mg/kg, po as powder qd for 12 days; format: functional, organism-based
[2] = tested on: Mus musculus; assay: Antiphotoaging activity in DBA-2 mouse assessed as reduction of UVB-induced epidermal hyperproliferation in ear tissue at 92.4 mg/kg, po as powder qd for 12 days relative to untreated control; format: functional, organism-based; set-up: dose 92.4 mg/kg
[3] = tested on: Mus musculus; assay: Antiphotoaging activity in DBA-2 mouse assessed as reduction of UVB-induced epidermal hyperproliferation in ear tissue administered as po as powder qd for 12 days relative to untreated control; format: functional, organism-based
[4] = tested on: Mus musculus; assay: Antiphotoaging activity in DBA-2 mouse assessed as reduction of UVB-induced epidermal hyperproliferation in ear tissue at 462.2 mg/kg, po as powder qd for 12 days relative to untreated control; format: functional
[5] = target: Transcription factor p65 (Homo sapiens) (UniProt Q04206); assay: Inhibition of NF-kappaB p65 expressed in human keratinocytes co-cultured with human epidermal melanocytes assessed as inhibition of melanocyte proliferation at 4 uM by WST-1 assay; format: cell-based
[6] = target: Transcription factor p65 (Homo sapiens) (UniProt Q04206); assay: Inhibition of NF-kappaB-65 (unknown origin) expressed in human dermal fibroblasts assessed as inhibition of MMP1 production at 4 uM by EIA
[7] = target: Transcription factor p65 (Homo sapiens) (UniProt Q04206); assay: Inhibition of NF-kappaB-65 (unknown origin) expressed in human keratinocytes assessed as inhibition of bFGF production at 4 uM by EIA; format: cell-based
[8] = target: Transcription factor p65 (Homo sapiens) (UniProt Q04206); assay: Inhibition of NF-kappaB-65 (unknown origin) expressed in TNFalpha-stimulated HEK293 cells assessed inhibition of nuclear translocation at 8 uM after 3 hrs; format: cell-based
[9] = target: Transcription factor p65 (Homo sapiens) (UniProt Q04206); assay: Inhibition of NF-kappaB-65 (unknown origin)-mediated transactivation in TNFalpha-stimulated HEK293 cells assessed inhibition of I-kappaB phosphorylation and degradation after 24 hrs; format: cell-based
[10] = tested on: HEK293; assay: Inhibition of NF-kappaB (unknown origin) expressed in TNFalpha-stimulated HEK293 cells expressing pGL3-Luc assessed inhibition of transactivation activity after 24 hrs by luciferase assay; format: cell-based; conditions: Homo sapiens
[11] = tested on: Mus musculus; assay: Antiphotoaging activity in DBA-2 mouse assessed as reduction of UVB-induced melanocyte proliferation in ear tissue at 92.4 to 462.2 mg/kg, po as powder qd for 12 days relative to untreated control; format: functional; conditions: dose mg/kg 92.4-462.2

Chain of Transcription factor p65 (Homo sapiens) (Q04206 whole entry): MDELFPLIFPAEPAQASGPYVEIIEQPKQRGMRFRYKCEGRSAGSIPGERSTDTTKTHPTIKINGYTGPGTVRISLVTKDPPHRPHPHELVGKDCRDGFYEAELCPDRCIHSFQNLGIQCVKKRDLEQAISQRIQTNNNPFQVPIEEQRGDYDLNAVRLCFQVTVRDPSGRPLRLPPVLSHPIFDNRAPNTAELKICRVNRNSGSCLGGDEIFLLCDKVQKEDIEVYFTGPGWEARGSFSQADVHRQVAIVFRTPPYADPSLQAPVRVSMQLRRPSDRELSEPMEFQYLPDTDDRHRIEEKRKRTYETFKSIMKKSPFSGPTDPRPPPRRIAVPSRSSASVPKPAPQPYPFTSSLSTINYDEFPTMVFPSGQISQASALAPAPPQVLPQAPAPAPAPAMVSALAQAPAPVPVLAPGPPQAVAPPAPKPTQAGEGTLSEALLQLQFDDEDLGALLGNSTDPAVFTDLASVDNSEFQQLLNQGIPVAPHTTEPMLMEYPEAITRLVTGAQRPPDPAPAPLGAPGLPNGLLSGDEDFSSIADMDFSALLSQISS

For `C=C(CO)C(=O)O[C@H]1CC(=C)[C@@H]2C[C@H](O)C(=C)[C@@H]2[C@H]2OC(=O)C(=C)[C@@H]21` [CYNAROPICRIN], the Activity [1] was “inactive”, the Activity [2] was “Active” and the Activity [3] was “Dose-dependent effect”. The “fold change (FC)” value [4] was 1.7, the inhibition [5] was “Active” and the inhibition [6] was “Active”. For the same compound, the inhibition [7] was “Active”, the inhibition [8] was “Active” and the inhibition [9] was “Dose-dependent effect”. The inhibition [10] was “Dose-dependent effect” and the “fold change (FC)” value [11] was 4.3.
